Results reported in patent publication US5760001A, “Cytokine restraining agents and methods of use in pathologies and conditions associated with altered cytokine levels” (Trega Biosciences, Inc., priority 1995, dated 1998).

Test system: adult female Balb/c mice
Experiment: Carageenan-induced paw swelling
Format: in vivo
Details: 1 μg/mouse; measured at the 2 hr time point
Description: Carageenan-induced paw swelling was induced using a modification of the methods of Hiltz and Lipton, Peptides 11:979-982 (1990); Vinegar et al., Fed. Proc. 46:118-1.26 (1987); and Vinegar et al., J. Pharmacol. Expt. Therap. 166:96-103 (1969), each of which is incorporated herein by reference. Briefly, adult female Balb/c mice were anesthetized by IP injection of 7 mg/kg ketoamine and 0.6 mg/kg rompun. Foot pad thickness was measured using a spring loaded micrometer (Swiss Precision Instruments). Foot pad thickness was expressed in units of 1/100 inch. After baseline measurements were obtained, mice were injected into a hind foot pad with either 0.2 ml physiologic saline (control) or varying doses of EX-2 or EX-3 in 0.2 ml saline (treated). The first injection was followed immediately by injection of 0.02 ml of 0.15% κ-carageenan (Sigma Chemical Co.; St. Louis, Mo.).
Hind foot pad thickness was measured hourly for six hr, the change in thickness was determined and the percent reduction in swelling due to treatment with EX-2 was calculated.

“Ac-Nle-Gln-His-(D)Phe-Arg-(D)Trp-Gly-NH2 [EX-2]” was tested, and the “Reduction in Carageenan-induced Paw Swelling” value was 45%.
